This passage reports IC and MIC results from ChEMBL document CHEMBL5260811, “Drug development against tuberculosis: Impact of alkaloids” (Eur J Med Chem, 2017).

For one test, the system named is Mycobacterium tuberculosis. Briefly: Antimycobacterial activity against Mycobacterium tuberculosis. The format is functional.
Conditions: not given
The molecule `C=C[C@H]1C=C[C@H]2[C@@H]3C[C@H](C)CC[C@H]3[C@@H]3Oc4ccc(cc4)C[C@]4(O)NC(=O)[C@]5(O[C@H]54)C(=O)[C@@H]1[C@H]23` showed an IC of 0.78 µg/mL.

On to `CC1=C(CC/C(C)=C/CC/C(C)=C/C[n+]2cn(C)c3nc[n-]/c(=N\OC(C)(C)C)c32)C(C)(C)CCC1`, for which the IC came to 6.25 µg/mL.

Molecule `C/C=C/[C@H]1C=C[C@H]2[C@@H]3C[C@H](C)CC[C@H]3[C@@H]3Oc4ccc(cc4)C[C@@H]4C(=O)NC(=O)[C@H]4C(=O)[C@@H]1[C@H]23` came in with an IC of 3.125 µg/mL.

`C=C[C@H]1C=C[C@H]2[C@@H]3C[C@H](C)CC[C@H]3[C@@H]3Oc4ccc(cc4)C[C@@]4(O)C[C@H](C(=O)N4)C(=O)[C@@H]1[C@H]23` came in with an IC of 0.78 µg/mL.

`C=C[C@H]1C=C[C@H]2[C@@H]3C[C@H](C)CC[C@H]3[C@@H]3Oc4ccc(cc4)C[C@@H]4C(=O)NC(=O)[C@H]4C(=O)[C@@H]1[C@H]23` displayed an IC of 0.78 µg/mL.

Consider `CO/N=c1\[n-]cnc2c1[n+](C/C=C(\C)CC/C=C(\C)CCC1=C(C)CCCC1(C)C)cn2C`, for which the IC was 6.25 µg/mL.

The test is the same for the next values; noted with them: Mycobacterium tuberculosis.
Broadly, the MIC is the smallest concentration in the dilution series that meets the test's criterion for growth inhibition. Low values mean greater potency, high ones weaker potency. The molecule `COc1ccc2c(c[n+](C)c3c4cc5c(cc4ccc23)OCO5)c1OC.[Cl-]` [CHELERYTHRINE CHLORIDE] had an MIC of 14.3 µg/mL.

For `CCCCCCCCCCCc1cc(=O)c2ccccc2n1C`, the MIC came out at 2 µg/mL.

In turn, `CCCC/C=C\CCCCCCc1cc(=O)c2ccccc2n1C` returned an MIC of 2 µg/mL.

The molecule `O=C(NN1C(=O)C(Cl)C1c1ccc(Cl)cc1)c1cc(O)c(O)c(O)c1` (stereo not drawn) displayed an MIC of 0.83 µg/mL.

Molecule `[C-]#[N+][C@@H]1[C@H]2c3c[nH]c4cccc(c34)C(C)(C)[C@@H]2CC[C@]1(C)C=C` [HAPALINDOLE H] returned an MIC of 58.8 µM.

`[C-]#[N+][C@]12C=CC(C)(C)c3[nH]c4cccc5c4c3[C@]1(O)[C@H](CC[C@]2(C)C=C)C5(C)C` [AMBIGUINE L ISONITRILE] had an MIC of 4.5 µg/mL.

In turn, `O=C(NN1C(=O)C(Cl)C1c1cccc(Cl)c1)c1cc(O)c(O)c(O)c1` (stereo not drawn) showed a minimal inhibitory concentration (MIC) of 0.57 µg/mL.

On to `[C-]#[N+][C@@H]1[C@@H]2c3c[nH]c4cccc(c34)C(C)(C)[C@H]2C[C@@H](Cl)[C@]1(C)C=C` [HAPALINDOLE G], for which the MIC was 6.8 µM.

In turn, `Cn1c(=O)ccc2ccccc21` gave an MIC of 6.25 µg/mL.

The molecule `[C-]#[N+][C@@H]1[C@]2(O)c3c(C(C)(C)C=C)[nH]c4cccc(c34)C(C)(C)[C@H]2CC[C@]1(C)C=C` [AMBIGUINE C ISONITRILE] registered a minimum inhibitory concentration (MIC) of 7 µM. That is a single-digit micromolar value.

`COc1ccc2c(c1)[nH]c1cc(OC)c(C(=O)O)cc12` [CLAUSINE K] returned an MIC of 100 µg/mL.

The molecule `c1cc2c[n+](c1)CCCCCCCCCCCCCCc1ccc[n+](c1)CCCCCCCCCCC2` yielded an MIC of 4.6 µg/mL. This MIC lies about 22-fold lower than the previous one.

Regarding `c1cc2c[n+](c1)CCCCCCCCCCCCCCc1ccc[n+](c1)CCCCCCCCCC2`, the MIC was determined as 5.3 µg/mL.

As to `CCCC/C=C\CCCCc1cc(=O)c2ccccc2n1C`, 2 µg/mL was the least that counted as inhibitory (MIC).

On to `c1cc2c[n+](c1)CCCCCCCCCCCCc1ccc[n+](c1)CCCCCCCCCCC2`, for which the MIC was 9.3 µg/mL.

In turn, `C=CC(C)(C)c1[nH]c2c(CC=C(C)C)cc(CC=C(C)C)cc2c1C[C@@H]1NC(=O)[C@H](C)NC1=O` [ECHINULIN] displayed a minimal inhibitory concentration (MIC) of 170 µg/mL. Compared with the last molecule, the MIC is about 18-fold higher.

Regarding `COc1c(O)c2c3c(c1OC)CCN[C@H]3Cc1cc3c(cc1-2)OCO3.Cl`, the MIC is 4 µg/mL.

The molecule `CO[C@H]1/C=C/O[C@@]2(C)Oc3c(C)c(O)c4c(O)c(c(/C=N/N5CCN(C6CCCC6)CC5)c(O)c4c3C2=O)NC(=O)/C(C)=C\C=C\[C@H](C)[C@H](O)[C@@H](C)[C@@H](O)[C@@H](C)[C@H](OC(C)=O)[C@@H]1C` [RIFAPENTINE] gave an MIC of 0.02 µg/mL.

For the molecule `Nc1c(Br)cc(Br)cc1CN[C@H]1CC[C@H](O)CC1` [AMBROXOL], 6 µg/mL was the least that counted as inhibitory (MIC). This MIC lies about 300-fold higher than the previous one.

Molecule `[C-]#[N+][C@]12C[C@@H](O)C(C)(C)c3[nH]c4cccc5c4c3[C@]1(O)[C@H](CC[C@]2(C)C=C)C5(C)C` [AMBIGUINE N ISONITRILE] yielded a minimal inhibitory concentration (MIC) of 10.9 µg/mL.

The molecule `[C-]#[N+][C@]12[C@H]3O[C@H]3C(C)(C)c3[nH]c4cccc5c4c3[C@]1(O)[C@H](CC[C@]2(C)C=C)C5(C)C` registered an MIC of 13.1 µM.

The molecule `[C-]#[N+][C@]12C[C@@H](O)C(C)(C)c3[nH]c4cccc5c4c3[C@]1(O)[C@H](C[C@@H](Cl)[C@]2(C)C=C)C5(C)C` [AMBIGUINE M ISONITRILE] yielded an MIC of 3.3 µg/mL.

In turn, `CCCCC/C=C\C/C=C\CCc1cc(=O)c2ccccc2n1C` returned an MIC of 2 µg/mL. This MIC is about 1.6-fold lower than that of the molecule before.

Regarding `[C-]#[N+][C@@H]1[C@@H]2c3c(C(C)(C)C=C)[nH]c4cccc(c34)C(C)(C)[C@H]2C[C@@H](Cl)[C@]1(C)C=C` [AMBIGUINE A ISONITRILE], the MIC was determined as 46.7 µM.

Molecule `CC(=O)NCCC1C2=C3C(=NC=CC3c3ccccc3N2)c2ncsc21` (stereo not drawn) came in with an MIC of 34 µM.

On to `CCCCC/C=C\C/C=C\CCCCc1cc(=O)c2ccccc2n1C`, for which the MIC turned out to be 2 µg/mL.

In turn, `[C-]#[N+][C@]12[C@H]3O[C@H]3C(C)(C)c3[nH]c4cccc5c4c3[C@]1(O)[C@H](C[C@@H](Cl)[C@]2(C)C=C)C5(C)C` [AMBIGUINE E ISONITRILE] displayed an MIC of 21 µM.

The molecule `CN(Cc1cc(Br)cc(Br)c1N)C1CCCCC1` [BROMHEXINE] came in with an MIC of 6 µg/mL.

With `O=C(NN1C(=O)C(Cl)C1c1ccccc1Cl)c1cc(O)c(O)c(O)c1` (stereo not drawn), the MIC is 0.76 µg/mL.

For `C[n+]1cc2c3c(ccc2c2ccc4cc5c(cc4c21)OCO5)OCO3.[Cl-]` [SANGUINARIUM CHLORIDE], the MIC came out at 24.5 µg/mL. Compared with the last molecule, the MIC is about 32-fold higher.

Consider `O=[N+]([O-])c1cn2c(n1)OC[C@@H](OCc1ccc(OC(F)(F)F)cc1)C2` [PRETOMANID], for which inhibition of growth (MIC) required 0.015 µg/mL.

`CN(C)c1ccc(C2C(Cl)C(=O)N2NC(=O)c2cc(O)c(O)c(O)c2)cc1` (stereo not drawn) registered an MIC of 0.62 µg/mL.

`COC(=O)c1ccc2[nH]c3ccccc3c2c1` came in with an MIC of 50 µg/mL.

Molecule `COc1c(O)c2c3c(c1OC)CCN[C@H]3Cc1cc3c(cc1-2)OCO3` showed an MIC of 64 µg/mL.

`CC(=O)NCCC1=C2Nc3ccccc3C3C=CN=C(C4=C1SCO4)C23` (stereo not drawn) showed an MIC of 17 µM. In other words, the double-digit micromolar range.

For `CC(=O)NCCC1C2=C3C(=NC=CC3c3ccccc3N2)C2=C1SCC(=O)N2` (stereo not drawn), inhibition of growth (MIC) required 32 µM.

`COC(=O)N1CCc2c(OC)c(OC)c(O)c3c2[C@@H]1Cc1cc2c(cc1-3)OCO2` showed an MIC of 128 µg/mL.

Consider `COc1ccc(CCC2CCc3ccccc3N2C)cc1OC` (stereo not drawn), for which the MIC worked out at 6.25 µg/mL.

With `O=[N+]([O-])c1cn2c(n1)OC[C@@H](OCc1ccc(-c3ccc(OC(F)(F)F)cc3)nc1)C2` [TBA-354], the MIC worked out at 0.34 µg/mL.

As to `c1cc2c[n+](c1)CCCCCCCCCCCCc1ccc[n+](c1)CCCCCCCCCC2`, the lowest concentration to inhibit growth (MIC) was 4.6 µg/mL.

`c1cc2c[n+](c1)CCCCCCCCCCCCCc1ccc[n+](c1)CCCCCCCCCC2` gave an MIC of 6.6 µg/mL.

The next test concerns Mycobacterium tuberculosis. In words: Antimycobacterial activity against Mycobacterium tuberculosis H37Rv. Format: functional.
Conditions: not given
`COc1c(O)ccc2c1cnc1c3cc4c(cc3ccc21)OCO4` [DECARINE]: the lowest concentration to inhibit growth (MIC) was 3.1 µg/mL.

`c1cc2c[n+](c1)CCCCCCCCCCCCCc1ccc[n+](c1)CCCCCCCCCCCCC2` had an MIC of 4 µg/mL.

As to `CC1CCC(=NNC(=O)c2[nH]c3ccc(F)cc3c2-c2ccccc2)CC1` (stereo not drawn), the MIC turned out to be 6.25 µg/mL. This MIC is about 1.6-fold higher than that of the molecule before.

Regarding `O=C1c2c(O)ccnc2-c2nccc3c2c1nc1ccccc13`, the MIC was above 42 µM.

In turn, `CC1=CCC[C@H](C)[C@@]1(C)CC/C(C)=C/CC/C(C)=C/Cn1c[n+](C)c2ncnc(N)c21` showed an MIC of 3.13 µg/mL.

`CCSC1=CC(=O)c2nc3ccccc3c3ccnc1c23` gave an MIC of 0.34 µM.

Molecule `O=C1C(c2ccc(O)cc2)=C2C(=C(c3ccc(O)cc3)C(=O)N2CCc2ccc(O)cc2)c2ccc(O)cc21` had an MIC of 4 µg/mL.

With `Cc1ccc(SC2=CC(=O)c3nc4ccccc4c(C)c3C2=O)cc1`, inhibition of growth (MIC) required 2.2 µM.

The molecule `CCCCCCCCC/C=C/C=C/C(=O)NCC(C)C` gave an MIC of 6.2 µg/mL.

Molecule `CO/N=c1\[nH]cnc2c1[n+](C/C=C(\C)CC/C=C(\C)CC/C=C(\C)CCC=C(C)C)cn2C.[Cl-]` registered an MIC of 3.13 µg/mL.

As for `CC[C@@H](CO)NCCN[C@@H](CC)CO` [ETHAMBUTOL], the MIC was 5.61 µg/mL.

Molecule `COC1=CC(=O)c2nc3ccccc3c3ccnc1c23` yielded an MIC of 1.5 µM.

As for `C=C1c2[nH]cc(Br)c2[C@H]2NC(N)=N[C@]23CCCN13`, it took 64 µg/mL to inhibit growth (MIC).

Molecule `COc1cc2c(cc1OC)C(CC(C)=O)N(C)c1c-2ccc2cc3c(cc12)OCO3` (stereo not drawn) had an MIC of 6.2 µg/mL.

`C=C[C@@]1(C)[C@H](Cl)C[C@@H]2C(C)(C)c3cccc4[nH]c5c(c34)[C@@]2(O)[C@]1(C#N)C=CC5(C)C` yielded an MIC of 2.8 µg/mL.

Turning to `Oc1ccc2[nH]c3c(C4=C[C@@]5(O)CC/C=C\CCCCN6CC[C@@H]4C4(C[C@@H]7/C=C\CCCCN7C45)C6)nccc3c2c1` (stereo partly drawn), inhibition of growth (MIC) required 1.9 µg/mL. The MIC values of the last two molecules are within 1.5-fold of each other.

`O=C1C(c2ccc(O)cc2)=C(c2ccc(O)cc2)/C(=C/c2ccc(O)cc2)N1CCc1ccc(O)cc1` showed an MIC of 32 µg/mL.

`C=C1CC[C@@]2(C#N)[C@H]3[C@H](CC[C@@H]2C)[C@@H](C)C[C@@H](CC(C)(C)NC(=O)CN2CCC2=O)[C@H]13` showed an MIC of 15.3 µg/mL.

On to `CCCC1CCC2(CC1)SCC(=O)N2NC(=O)c1[nH]c2ccc(F)cc2c1-c1ccccc1` (stereo not drawn), for which the MIC is 6.25 µg/mL.

Take `O=C1C(c2ccc(O)cc2)=C(c2ccc(O)cc2)C(=O)N1CCc1ccc(O)cc1`: 16 µg/mL was the least that counted as inhibitory (MIC).

The molecule `CN1C=NC2=C(N)NCNC21` (stereo not drawn) gave an MIC of 6.25 µg/mL. Compared with the last molecule, the MIC is about 2.6-fold lower.

As to `Nc1nc(/C=C/CNC(=O)c2cc(Br)c[nH]2)c[nH]1`, the lowest concentration to inhibit growth (MIC) was 6.1 µg/mL.

Regarding `C=C[C@@]1(C)C(Cl)C[C@@H]2C(C)(C)c3cccc4[nH]c5c(c34)[C@@]2(O)[C@]1(C#N)[C@@]1(CO1)C5(C)C` (stereo partly drawn), the lowest concentration to inhibit growth (MIC) was 2 µM.

`CC(=O)C[C@H]1C[C@H]2[C@H]([C@@H]3c4[nH]c5ccccc5c4CCN13)[C@H](O)C13CC/C=C\CCCCN1C[C@@]21CC/C=C\CCCCN[C@@H]31` came in with an MIC of 1.5 µg/mL.

Consider `CC(=O)C[C@@H]1C[C@H]2[C@H]([C@@H]3c4[nH]c5ccccc5c4CCN13)[C@H](O)C13CC/C=C\CCCCN1C[C@@]21CC/C=C\CCCCN[C@@H]31`, for which the lowest concentration to inhibit growth (MIC) was 5.2 µg/mL.

Molecule `Cc1ccc(SC2=CC(=O)c3nc4ccccc4c4ccnc2c34)cc1` had an MIC of 9 µM.
